Measurements reported in the supplement of paper PMC13207355.

Experiments:
Conditions in all cases: exposure time: 72 h
[1] = system: E21 (patient-derived glioblastoma stem cells of mesenchymal subtype); assay: phenotypic distance (Euclidean, principal components) from DMSO controls (arbitrary units); higher = stronger morphological change
[2] = system: E34 (patient-derived glioblastoma stem cells of proneural subtype); assay: as above
[3] = system: E13 (patient-derived glioblastoma stem cells of classical subtype); assay: as above
[4] = system: E57 (patient-derived glioblastoma stem cells of mesenchymal subtype); assay: as above
[5] = system: E28 (patient-derived glioblastoma stem cells of classical subtype); assay: as above
[6] = system: E31 (patient-derived glioblastoma stem cells of proneural subtype); assay: as above
[7] = system: FT3469 (normal neural stem cell line); assay: as above
[8] = system: E21; assay: surviving fraction (nuclei count normalised to DMSO); higher = more cells surviving (less toxic)
[9] = system: E34; assay: as above
[10] = system: E13; assay: as above
[11] = system: E57; assay: as above
[12] = system: E28; assay: as above
[13] = system: E31; assay: as above
[14] = system: FT3469; assay: as above
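Wherever phenotypic distance (Euclidean, principal components) from DMSO controls is given: cell Painting imaging in 384-well plates, CellProfiler features reduced to at least 20 principal components, Euclidean distance versus same-plate DMSO vehicle wells (0.1% v/v), median over six images per well.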
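Wherever surviving fraction (nuclei count normalised to DMSO) is given: nuclei counted by high-content imaging of Hoechst-stained cells in laminin-coated 384-well plates, relative to 0.1% DMSO vehicle wells, with staurosporine as cell-death control.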

COc1cc2c(c(OC)c1OC)-c1ccc(OC)c(=O)cc1[C@@H](NC(C)=O)CC2 [Colchicine]
Conditions | phenotypic distance | surviving fraction
[1], 4.1 nM | 5.8 | –
[1], 12.3 nM | 5.88 | –
[1], 37 nM | 5.7 | –
[1], 111.1 nM | 5.45 | –
[1], 333.3 nM | 5.2 | –
[1], 1000 nM | 5.35 | –
[1], 3000 nM | 4.96 | –
[2], 4.1 nM | 3.32 | –
[2], 12.3 nM | 7.33 | –
[2], 37 nM | 9.15 | –
[2], 111.1 nM | 9.46 | –
[2], 333.3 nM | 7.78 | –
[2], 1000 nM | 7.61 | –
[2], 3000 nM | 10.5 | –
[3], 4.1 nM | 5.49 | –
[3], 12.3 nM | 5.12 | –
[3], 37 nM | 6.59 | –
[3], 111.1 nM | 7.17 | –
[3], 333.3 nM | 8.24 | –
[3], 1000 nM | 7.42 | –
[3], 3000 nM | 7.88 | –
[4], 4.1 nM | 4.26 | –
[4], 12.3 nM | 4.49 | –
[4], 37 nM | 4.46 | –
[4], 111.1 nM | 4.55 | –
[4], 333.3 nM | 4.46 | –
[4], 1000 nM | 4.61 | –
[4], 3000 nM | 5.19 | –
[5], 4.1 nM | 2.89 | –
[5], 12.3 nM | 3.81 | –
[5], 37 nM | 4.44 | –
[5], 111.1 nM | 4.55 | –
[5], 333.3 nM | 5.48 | –
[5], 1000 nM | 4.51 | –
[5], 3000 nM | 5.17 | –
[6], 4.1 nM | 4.44 | –
[6], 12.3 nM | 6.48 | –
[6], 37 nM | 9.95 | –
[6], 111.1 nM | 12.2 | –
[6], 333.3 nM | 11.7 | –
[6], 1000 nM | 10.4 | –
[6], 3000 nM | 12.5 | –
[7], 4.1 nM | 3.51 | –
[7], 12.3 nM | 4.18 | –
[7], 37 nM | 5.37 | –
[7], 111.1 nM | 5.29 | –
[7], 333.3 nM | 4.34 | –
[7], 1000 nM | 5.12 | –
[7], 3000 nM | 4.51 | –
[8], 4.1 nM | – | 0.171
[8], 12.3 nM | – | 0.125
[8], 37 nM | – | 0.133
[8], 111.1 nM | – | 0.137
[8], 333.3 nM | – | 0.136
[8], 1000 nM | – | 0.135
[8], 3000 nM | – | 0.139
[9], 4.1 nM | – | 0.406
[9], 12.3 nM | – | 0.368
[9], 37 nM | – | 0.389
[9], 111.1 nM | – | 0.284
[9], 333.3 nM | – | 0.318
[9], 1000 nM | – | 0.245
[9], 3000 nM | – | 0.267
[10], 4.1 nM | – | 0.247
[10], 12.3 nM | – | 0.187
[10], 37 nM | – | 0.165
[10], 111.1 nM | – | 0.14
[10], 333.3 nM | – | 0.151
[10], 1000 nM | – | 0.152
[10], 3000 nM | – | 0.178
[11], 4.1 nM | – | 0.21
[11], 12.3 nM | – | 0.0932
[11], 37 nM | – | 0.105
[11], 111.1 nM | – | 0.119
[11], 333.3 nM | – | 0.0902
[11], 1000 nM | – | 0.0976
[11], 3000 nM | – | 0.0829
[12], 4.1 nM | – | 0.546
[12], 12.3 nM | – | 0.244
[12], 37 nM | – | 0.335
[12], 111.1 nM | – | 0.295
[12], 333.3 nM | – | 0.291
[12], 1000 nM | – | 0.211
[12], 3000 nM | – | 0.207
[13], 4.1 nM | – | 0.131
[13], 12.3 nM | – | 0.0944
[13], 37 nM | – | 0.0551
[13], 111.1 nM | – | 0.0362
[13], 333.3 nM | – | 0.0614
[13], 1000 nM | – | 0.0519
[13], 3000 nM | – | 0.0425
[14], 4.1 nM | – | 0.487
[14], 12.3 nM | – | 0.468
[14], 37 nM | – | 0.367
[14], 111.1 nM | – | 0.301
[14], 333.3 nM | – | 0.263
[14], 1000 nM | – | 0.335
[14], 3000 nM | – | 0.229
